Test results published in patent publication US12043612B2, “Methods of manufacturing a bifunctional compound, ultrapure forms of the bifunctional compound, and dosage forms comprising the same” (Arvinas Operations, Inc., priority 2020, dated 2024).
Values after ≈ are worked out from the molar mass of the structure shown.

How the values were obtained:
pKa of Compound A = format: physicochemical
Procedure: (§1) This batch was prepared for use in the 28-day good laboratory practice (GLP) toxicology studies using the same synthetic scheme and processing employed in preparation of active pharmaceutical ingredient (API) to be used in the clinical drug product.

[1] = pH-Solubility Profile in buffers and simulated intestinal fluids; format: physicochemical; details: read-out: pH-Solubility Profile, Concentration
Procedure: as §1

[2] = Solubility in pH 6.5 simulated intestinal fluid (SIF); format: physicochemical
MDCK cells = test: In vitro permeability in MDCK cells; format: in vitro ADME
[3] = Glass transition and recrystallization temperature of amorphous solids; format: physicochemical
Procedure: Thus, while crystals of Compound A are quite stable, there is a significant barrier to transforming to a crystalline state from an amorphous form. Indeed, a ramped temperature increase of a partially-crystalline sample does eventually lead to a recrystallization event, but not until a temperature of 200-220° C. is achieved. […] As discussed below, this robust resistance to crystallization is preserved even in the presence of water.
The amorphous form of pure Compound A is robust with a high Tg and even higher recrystallization temperature. The glass transition temperature does decrease under the plasticizing conditions of high humidity. However, the value is still well above the commonly applied 40-50° C. difference between Tg and any temperature the clinical presentation will encounter.

[4] = Solvent screen for dissolution of crystalline Compound A; format: physicochemical
Procedure: A screen was conducted to determine the optimum solvent for use purifying Compound A and for dissolution of crystalline Compound A prior to spray drying.

BCS designation = details: low solubility, low permeability
[5] = Oral bioavailability and hepatic clearance with colloid-forming, precipitation-resistant solutions; format: in vivo
[6] = Membrane flux experiment (donor/receiver compartments, SIF bile salts)
Procedure: A membrane flux experiment was conducted in which a fixed amount of compound was introduced into the donor compartment at various concentrations of the SIF bile salts, and appearance of drug was monitored on the receiver side.

N#Cc1ccc(O[C@H]2CC[C@H](NC(=O)c3ccc(N4CCC(CN5CCN(c6cc7c(cc6F)C(=O)N(C6CCC(=O)NC6=O)C7=O)CC5)CC4)nn3)CC2)cc1Cl (stereo partly shown) [Compound A, N-[(1r,4r)-4-(3-chloro-4-cyanophenoxy)cyclohexyl]-6-[4-({4-[2-(2,6-dioxopiperidin-3-yl)-6-fluoro-1,3-dioxo-2,3-dihydro-1H-isoindol-5-yl]piperazin-1-yl}methyl)piperidin-1-yl]pyridazine-3-carboxamide]
pKa1 (pKa of Compound A): pKa1 = 6.8
pKa2 (pKa of Compound A): pKa2 = 2.7
solubility ([1]; aqueous buffer, pH 3 200 mM citrate buffer, pH of solution 3.0): 15 µg/mL (≈ 18.5 µM)
solubility ([1]; aqueous buffer, pH 5 200 mM citrate buffer, pH of solution 5.0): 0.5 µg/mL (≈ 0.616 µM)
solubility ([1]; aqueous buffer, pH 6.5 200 mM citrate buffer, pH of solution 6.5): 0.3 µg/mL (≈ 0.369 µM)
solubility ([1]; pH 5, fessif, Fed state simulated intestinal fluid, pH of solution 5.0): 22 µg/mL (≈ 27.1 µM)
solubility ([1]; pH 6.5, fassif, Fasted state simulated intestinal fluid, pH of solution 6.5): 1 µg/mL (≈ 1.23 µM)
solubility ([1]; simulated gastric fluid, pH 1.2 HCl (aq), pH of solution 1.2): 397 µg/mL (≈ 489 µM)
solubility ([2]; fassif, thermodynamic from solid, pH 6.5 simulated intestinal fluid (SIF), read-out: crystalline solid's solubility): 1.2 µg/mL (≈ 1.48 µM)
solubility ([2]; pH 6.5, fassif, read-out: amorphous solubility in SIF): 30 µg/mL (≈ 36.9 µM)
in vitro permeability in MDCK cells (MDCK cells): low
glass transition temperature (Tg) [3]: 146 °C
temperature of recrystallization event ([3]; ramped temperature increase of a partially-crystalline sample): 200-220 °C
Dissolution ([4]; DCM:Acetone, 53:47% wt., Solids 0.82 wt %, RT): Not dissolved
Dissolution ([4]; DCM:Ethanol, 92:8% wt., Solids 2.26 wt %, RT): Dissolved
Dissolution ([4]; DCM:Methanol, 70:30% wt., Solids 3.2 wt %, RT): Turbid solution
Dissolution ([4]; DCM:Methanol, 80:20% wt., Solids 3.4 wt %, RT): Dissolved
Dissolution ([4]; DCM:Methanol, 90:10% wt., Solids 5 wt %, RT): Dissolved
Dissolution ([4]; DCM:Methanol, 90:10% wt., Solids 6.6 wt %, Temperature 30): Dissolved
Dissolution ([4]; DCM:Methanol, 90:10% wt., Solids 8.1 wt %, Temperature 35): Dissolved
Dissolution ([4]; DCM:Methanol, 95:5 wt. %., Solids 4.2 wt %, RT): Dissolved
Dissolution ([4]; DCM, Solids 0.6 wt %, RT): Not dissolved
Dissolution ([4]; Methanol, Solids 2.8 wt %, RT): Not dissolved
Dissolution ([4]; THF, Solids 0.7 wt %, RT): Not dissolved
BCS designation (BCS designation): BCS IV
oral bioavailability ([5]; colloid-forming, precipitation-resistant solutions administered): modest
hepatic clearance ([5]; in vivo): low
Flux (μg-min^−1-cm^−2) ([6]; SIF 0 mg/mL): 0.02 μg-min^−1-cm^−2
Flux (μg-min^−1-cm^−2) ([6]; SIF 5 mg/mL): 0.09 μg-min^−1-cm^−2
Flux (μg-min^−1-cm^−2) ([6]; SIF 10 mg/mL): 0.14 μg-min^−1-cm^−2
Flux (μg-min^−1-cm^−2) ([6]; SIF 20 mg/mL): 0.20 μg-min^−1-cm^−2
